This note sets out measurements from PubChem BioAssay (NCI).

The structures appear in SMILES notation. Values joined by “and” are separate entries in the source; they are usually repeats but may differ in a detail not shown here. Equal values may be shown once.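 A five-concentration, 48-hour dose response in 96-well plates underlies each endpoint, interpolated linearly between surrounding concentrations. The concentration for 50% growth inhibition is given as GI50. TGI marks complete inhibition of growth.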

In one assay the test system is NCI-H522 lung. Nature of the assay: NCI anticancer screen, dose series, 48 h.
`CN(C)C(=S)N=C(Nc1ccccc1)Nc1ccccc1` yielded a TGI of more than 100 µM.

As to `CC1(C)C(=O)/C=C\C(=O)C(C)(C)C2=CC=C(O2)C(C)(C)C(=O)/C=C\C(=O)C(C)(C)C2=CC=C1O2`, the TGI is more than 100 µM.

`COc1ccccc1N1C(=O)C2c3[nH]c4ccccc4c3C3CCC(C(C)(C)C)CC3C2C1=O` (stereo unspecified): the TGI was more than 100 µM.

As for `O=C(O)CCC(NC(=O)c1ccc(Nc2nc3ccccc3nc2-c2cccs2)cc1)C(=O)O` (stereo unspecified), the TGI is more than 100 µM.

In turn, `COC(=O)/C(C#N)=C1\NC(=O)c2ccccc21` yielded a TGI of more than 100 µM.

Compound `CCCCCCCCCCCC(=O)OCCOCCOCCOCCOCCOCc1ccccc1` registered a TGI of more than 100 µM.

For `CCCCCCCCCCCCCC(=O)OC(/C=C/C(C)C)C(O)C(O)C(OC)C(=O)NC1CCCCN(C)C1=O` (stereo unspecified), the TGI is 6.67 µM and > 49 µM.

`CC(=O)OC1OC([C@@H]2c3cccc(O)c3C(=O)c3c(O)cc(C)cc32)C(O)C(O)C1O` (stereo partly specified) gave a TGI of 0.382 µM.

Regarding `NC(=O)NO.O.O.O.O.O.O.O.O.O.O.O.[Ge].[Ge].[Ge].[Ge].[Ge].[O]=[Ge].[O]=[Ge].[O]=[Ge].[O]=[Ge].[O]=[Ge][OH]`, the TGI was more than 100 µM.

The compound `Cc1ccsc1C(=S)Nc1ccc(Cl)c(/C=N/OC(C)(C)C)c1` returned a TGI of more than 100 µM.

As to `COc1cc2cc(OC)c3cc4c(cc3c2c(OC)c1OC)OCO4`, the TGI amounted to 56.6 µM.

Consider `COc1cc2c(cc1OCCCCN1CCN(CC(=O)Nc3ccc(Cl)cc3C(=O)c3ccccc3Cl)CC1)N=CC1CCCN1C2=O` (stereo unspecified), for which the GI50 was 0.107 µM and the TGI amounted to 0.316 µM.

The test system of the next assay is DU-145 prostate. Briefly: NCI anticancer screen, dose series, 48 h.
Take `CCN1CCN(Cc2ccc(NC(=O)c3cccc(C#Cc4cccc5[nH]nc(N)c45)c3)cc2C(F)(F)F)CC1`: the GI50 was 0.419 µM and the TGI came out at 1.68 µM.

`COc1cnc2c(c1)C(=O)c1c-2n(CCCN2CCOCC2)c(=O)c2cc(F)ccc12`: the GI50 is 0.341 µM and the TGI is more than 100 µM.

`CC(C)=CCC\C(C)=C/C=C/C(C)=C\C=C\C(C)=C/C=C/C=C(C)\C=C\C=C(C)/C=C/C=C(/C)CCC=C(C)C` had a TGI of more than 100 µM.

As to `FC(F)(F)c1cccc(Nc2nc(-c3ccccc3)nc3ncccc23)c1`, the GI50 is 4.72 µM and the TGI was 21.8 µM.

As to `CC(=O)OC1OC([C@@H]2c3cccc(O)c3C(=O)c3c(O)cc(C)cc32)C(O)C(O)C1O` (stereo partly specified), the GI50 was 0.137 µM and the TGI turned out to be 1.69 µM.

Consider `Cc1ccsc1C(=S)Nc1ccc(Cl)c(/C=N/OC(C)(C)C)c1`, for which the TGI was more than 100 µM.

With `OCc1cc2ccccc2c2c3c(ccc12)OCO3`, the GI50 is 44 µM and the TGI is 170 µM.

In the case of `COc1cc2c(cc1OCCCCN1CCN(CC(=O)Nc3ccc(Cl)cc3C(=O)c3ccccc3Cl)CC1)N=CC1CCCN1C2=O` (stereo unspecified), the GI50 was 0.277 µM and the TGI is 0.791 µM.

Compound `Cc1ccc(Cl)c2c(N=Nc3ccccc3[N+](=O)[O-])c(O)[nH]c12` gave a TGI of more than 100 µM.

The next assay relates to U251 CNS. Nature of the assay: NCI anticancer screen, dose series, 48 h.
Compound `CN(C)C(=S)N=C(Nc1ccccc1)Nc1ccccc1` gave a TGI of more than 100 µM.

`CC1(C)C(=O)/C=C\C(=O)C(C)(C)C2=CC=C(O2)C(C)(C)C(=O)/C=C\C(=O)C(C)(C)C2=CC=C1O2` displayed a TGI of more than 100 µM.

The compound `COc1ccccc1N1C(=O)C2c3[nH]c4ccccc4c3C3CCC(C(C)(C)C)CC3C2C1=O` (stereo unspecified) showed a TGI of more than 100 µM.

In the case of `O=C(O)CCC(NC(=O)c1ccc(Nc2nc3ccccc3nc2-c2cccs2)cc1)C(=O)O` (stereo unspecified), the TGI was more than 100 µM.

In the case of `COc1cnc2c(c1)C(=O)c1c-2n(CCCN2CCOCC2)c(=O)c2cc(F)ccc12`, the GI50 was 0.0936 µM and the TGI was found to be 0.563 µM.

Consider `COC(=O)/C(C#N)=C1\NC(=O)c2ccccc21`, for which the TGI is more than 100 µM.

`CCCCCCCCCCCC(=O)OCCOCCOCCOCCOCCOCc1ccccc1` showed a TGI of more than 100 µM.

Regarding `CCCCCCCCCCCCCC(=O)OC(/C=C/C(C)C)C(O)C(O)C(OC)C(=O)NC1CCCCN(C)C1=O` (stereo unspecified), the TGI was 6.43 µM and > 49 µM.

For `FC(F)(F)c1cccc(Nc2nc(-c3ccccc3)nc3ncccc23)c1`, the GI50 is 3.52 µM and the TGI was 14.7 µM.

For `CC(=O)OC1OC([C@@H]2c3cccc(O)c3C(=O)c3c(O)cc(C)cc32)C(O)C(O)C1O` (stereo partly specified), the GI50 was less than 0.0152 µM and the TGI worked out at 0.257 µM.

Regarding `NC(=O)NO.O.O.O.O.O.O.O.O.O.O.O.[Ge].[Ge].[Ge].[Ge].[Ge].[O]=[Ge].[O]=[Ge].[O]=[Ge].[O]=[Ge].[O]=[Ge][OH]`, the TGI came to 69.9 µM.

For the compound `Cc1ccsc1C(=S)Nc1ccc(Cl)c(/C=N/OC(C)(C)C)c1`, the TGI was 79.3 µM.

Compound `COc1cc2cc(OC)c3cc4c(cc3c2c(OC)c1OC)OCO4` had a TGI of more than 59.3 µM.

Turning to `OCc1cc2ccccc2c2c3c(ccc12)OCO3`, the GI50 was 28.6 µM and the TGI came out at 141 µM.

Regarding `COc1cc2c(cc1OCCCCN1CCN(CC(=O)Nc3ccc(Cl)cc3C(=O)c3ccccc3Cl)CC1)N=CC1CCCN1C2=O` (stereo unspecified), the GI50 was 0.327 µM and the TGI amounted to 1.06 µM.

`Cc1ccc(Cl)c2c(N=Nc3ccccc3[N+](=O)[O-])c(O)[nH]c12` registered a TGI of more than 100 µM.

The test system of another assay is SNB-19 CNS. Nature of the assay: NCI anticancer screen, dose series, 48 h.
Consider `CCN1CCN(Cc2ccc(NC(=O)c3cccc(C#Cc4cccc5[nH]nc(N)c45)c3)cc2C(F)(F)F)CC1`, for which the GI50 is 1.07 µM and the TGI was 2.3 µM.

As to `CN(C)C(=S)N=C(Nc1ccccc1)Nc1ccccc1`, the TGI is more than 100 µM.

With `CC1(C)C(=O)/C=C\C(=O)C(C)(C)C2=CC=C(O2)C(C)(C)C(=O)/C=C\C(=O)C(C)(C)C2=CC=C1O2`, the TGI was more than 100 µM.

Regarding `COc1ccccc1N1C(=O)C2c3[nH]c4ccccc4c3C3CCC(C(C)(C)C)CC3C2C1=O` (stereo unspecified), the TGI is more than 100 µM.

`O=C(O)CCC(NC(=O)c1ccc(Nc2nc3ccccc3nc2-c2cccs2)cc1)C(=O)O` (stereo unspecified) came in with a TGI of more than 100 µM.

With `COc1cnc2c(c1)C(=O)c1c-2n(CCCN2CCOCC2)c(=O)c2cc(F)ccc12`, the GI50 is 0.264 µM and the TGI amounted to 7 µM.

`COC(=O)/C(C#N)=C1\NC(=O)c2ccccc21` had a TGI of more than 100 µM.

As for `CC(C)=CCC\C(C)=C/C=C/C(C)=C\C=C\C(C)=C/C=C/C=C(C)\C=C\C=C(C)/C=C/C=C(/C)CCC=C(C)C`, the TGI was more than 100 µM.

Compound `CCCCCCCCCCCC(=O)OCCOCCOCCOCCOCCOCc1ccccc1` had a TGI of more than 100 µM.

As to `CCCCCCCCCCCCCC(=O)OC(/C=C/C(C)C)C(O)C(O)C(OC)C(=O)NC1CCCCN(C)C1=O` (stereo unspecified), the GI50 is more than 49 µM; the TGI was 6.46 µM and > 49 µM.

`FC(F)(F)c1cccc(Nc2nc(-c3ccccc3)nc3ncccc23)c1`: the GI50 is 7.68 µM and the TGI worked out at 37.3 µM.

For `CC(=O)OC1OC([C@@H]2c3cccc(O)c3C(=O)c3c(O)cc(C)cc32)C(O)C(O)C1O` (stereo partly specified), the GI50 is 0.392 µM and the TGI stood at 21.4 µM.

Compound `NC(=O)NO.O.O.O.O.O.O.O.O.O.O.O.[Ge].[Ge].[Ge].[Ge].[Ge].[O]=[Ge].[O]=[Ge].[O]=[Ge].[O]=[Ge].[O]=[Ge][OH]` gave a TGI of more than 100 µM.

For `Cc1ccsc1C(=S)Nc1ccc(Cl)c(/C=N/OC(C)(C)C)c1`, the TGI was more than 100 µM.

`COc1cc2cc(OC)c3cc4c(cc3c2c(OC)c1OC)OCO4` registered a TGI of more than 100 µM.

With `OCc1cc2ccccc2c2c3c(ccc12)OCO3`, the GI50 is 35.6 µM and the TGI was 286 µM.

`COc1cc2c(cc1OCCCCN1CCN(CC(=O)Nc3ccc(Cl)cc3C(=O)c3ccccc3Cl)CC1)N=CC1CCCN1C2=O` (stereo unspecified): the GI50 is 0.36 µM and the TGI turned out to be 1.15 µM.

Consider `Cc1ccc(Cl)c2c(N=Nc3ccccc3[N+](=O)[O-])c(O)[nH]c12`, for which the TGI is more than 100 µM.

Another assay has as its system HCT-15 colon. Briefly: NCI anticancer screen, dose series, 48 h.
For `CN(C)C(=S)N=C(Nc1ccccc1)Nc1ccccc1`, the TGI was more than 100 µM.

`CC1(C)C(=O)/C=C\C(=O)C(C)(C)C2=CC=C(O2)C(C)(C)C(=O)/C=C\C(=O)C(C)(C)C2=CC=C1O2`: the TGI is more than 100 µM.

Consider `COc1ccccc1N1C(=O)C2c3[nH]c4ccccc4c3C3CCC(C(C)(C)C)CC3C2C1=O` (stereo unspecified), for which the TGI is more than 100 µM.

`O=C(O)CCC(NC(=O)c1ccc(Nc2nc3ccccc3nc2-c2cccs2)cc1)C(=O)O` (stereo unspecified) showed a TGI of more than 100 µM.

Take `COC(=O)/C(C#N)=C1\NC(=O)c2ccccc21`: the TGI was more than 100 µM.

`CC(C)=CCC\C(C)=C/C=C/C(C)=C\C=C\C(C)=C/C=C/C=C(C)\C=C\C=C(C)/C=C/C=C(/C)CCC=C(C)C` came in with a TGI of more than 100 µM.

The compound `CCCCCCCCCCCC(=O)OCCOCCOCCOCCOCCOCc1ccccc1` had a TGI of more than 100 µM.

As for `CCCCCCCCCCCCCC(=O)OC(/C=C/C(C)C)C(O)C(O)C(OC)C(=O)NC1CCCCN(C)C1=O` (stereo unspecified), the TGI is 7.55 µM and > 49 µM.

For the compound `FC(F)(F)c1cccc(Nc2nc(-c3ccccc3)nc3ncccc23)c1`, the GI50 was 3.28 µM and the TGI stood at 23.7 µM.

Take `CC(=O)OC1OC([C@@H]2c3cccc(O)c3C(=O)c3c(O)cc(C)cc32)C(O)C(O)C1O` (stereo partly specified): the GI50 is 0.0305 µM and the TGI stood at 1.46 µM.

For `NC(=O)NO.O.O.O.O.O.O.O.O.O.O.O.[Ge].[Ge].[Ge].[Ge].[Ge].[O]=[Ge].[O]=[Ge].[O]=[Ge].[O]=[Ge].[O]=[Ge][OH]`, the TGI is more than 100 µM.

`Cc1ccsc1C(=S)Nc1ccc(Cl)c(/C=N/OC(C)(C)C)c1` returned a TGI of more than 100 µM.

As for `COc1cc2cc(OC)c3cc4c(cc3c2c(OC)c1OC)OCO4`, the TGI is more than 51.1 µM.

As for `OCc1cc2ccccc2c2c3c(ccc12)OCO3`, the GI50 was 32.5 µM.

Take `COc1cc2c(cc1OCCCCN1CCN(CC(=O)Nc3ccc(Cl)cc3C(=O)c3ccccc3Cl)CC1)N=CC1CCCN1C2=O` (stereo unspecified): the GI50 is 0.923 µM and the TGI came to 2.3 µM.

`Cc1ccc(Cl)c2c(N=Nc3ccccc3[N+](=O)[O-])c(O)[nH]c12` came in with a TGI of more than 100 µM.

The subject of another assay is SNB-75 CNS. Nature of the assay: NCI anticancer screen, dose series, 48 h.
As for `CCN1CCN(Cc2ccc(NC(=O)c3cccc(C#Cc4cccc5[nH]nc(N)c45)c3)cc2C(F)(F)F)CC1`, the GI50 is 0.184 µM and the TGI was 0.89 µM.

Compound `CN(C)C(=S)N=C(Nc1ccccc1)Nc1ccccc1` gave a TGI of more than 100 µM.
